Source: PubChem BioAssay (NCI)
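A five-concentration, 48-hour dose response in 96-well plates underlies each endpoint, interpolated linearly between surrounding concentrations. GI50 = concentration required for 50% inhibition of growth. Definition used: TGI = concentration required for complete inhibition of growth.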

Assays:
Test in all cases: NCI tumour cell line growth inhibition, 48 h
T-47D breast = system: T-47D breast
NCI-H226 lung = system: NCI-H226 lung
SF-268 CNS = system: SF-268 CNS
UACC-62 melanoma = system: UACC-62 melanoma
SK-MEL-5 melanoma = system: SK-MEL-5 melanoma
HT29 colon = system: HT29 colon
PC-3 prostate = system: PC-3 prostate
HOP-92 NSCLC = system: HOP-92 NSCLC
HCC-2998 colon = system: HCC-2998 colon
MOLT-4 leukemia = system: MOLT-4 leukemia
U251 CNS = system: U251 CNS
BT-549 breast = system: BT-549 breast
HOP-62 NSCLC = system: HOP-62 NSCLC
NCI/ADR-RES ovarian = system: NCI/ADR-RES ovarian
A498 renal = system: A498 renal
A549 NSCLC = system: A549 NSCLC
UO-31 renal = system: UO-31 renal
SNB-19 CNS = system: SNB-19 CNS
KM12 colon = system: KM12 colon
NCI-H23 lung = system: NCI-H23 lung
SN12C renal = system: SN12C renal
HCT-15 colon = system: HCT-15 colon
CCRF-CEM leukemia = system: CCRF-CEM leukemia
UACC-257 melanoma = system: UACC-257 melanoma
ACHN renal = system: ACHN renal
SF-295 CNS = system: SF-295 CNS
SNB-75 CNS = system: SNB-75 CNS
DU-145 prostate = system: DU-145 prostate
OVCAR-8 ovarian = system: OVCAR-8 ovarian
NCI-H522 lung = system: NCI-H522 lung
RXF 393 renal = system: RXF 393 renal
SK-MEL-28 melanoma = system: SK-MEL-28 melanoma
MCF7 breast = system: MCF7 breast
TK-10 renal = system: TK-10 renal
COLO 205 colon = system: COLO 205 colon
RPMI-8226 leukemia = system: RPMI-8226 leukemia
SF-539 CNS = system: SF-539 CNS
IGROV1 ovarian = system: IGROV1 ovarian
MDA-MB-435 = system: MDA-MB-435
CAKI-1 renal = system: CAKI-1 renal
K-562 leukemia = system: K-562 leukemia
SK-MEL-2 melanoma = system: SK-MEL-2 melanoma
NCI-H460 lung = system: NCI-H460 lung
SK-OV-3 ovarian = system: SK-OV-3 ovarian
HS 578T breast = system: HS 578T breast
LOX IMVI melanoma = system: LOX IMVI melanoma
MALME-3M melanoma = system: MALME-3M melanoma
OVCAR-5 ovarian = system: OVCAR-5 ovarian
HCT-116 colon = system: HCT-116 colon
SR leukemia = system: SR leukemia
OVCAR-3 ovarian = system: OVCAR-3 ovarian
SW-620 colon = system: SW-620 colon
M14 melanoma = system: M14 melanoma
786-0 renal = system: 786-0 renal
OVCAR-4 ovarian = system: OVCAR-4 ovarian
MDA-MB-231 breast = system: MDA-MB-231 breast
EKVX NSCLC = system: EKVX NSCLC

`COc1cc2c3c(n(CCCN(C)C)c(=O)c2cc1OC)-c1ccccc1C3=O` showed a GI50 (T-47D breast) of 30.8 µM, a TGI (T-47D breast) of over 100 µM and a GI50 (NCI-H226 lung) of 18.6 µM. It also gave a TGI (NCI-H226 lung) of over 100 µM, a GI50 (SF-268 CNS) of 7.69 µM and a TGI (SF-268 CNS) of over 100 µM. The GI50 (UACC-62 melanoma) was 1.48 µM, the TGI (UACC-62 melanoma) was 19.1 µM and the GI50 (SK-MEL-5 melanoma) was 10.1 µM. It also gave a TGI (SK-MEL-5 melanoma) of 47 µM, a GI50 (HT29 colon) of 0.738 µM and a TGI (HT29 colon) of 16.6 µM. It also gave a GI50 (PC-3 prostate) of 9.02 µM, a TGI (PC-3 prostate) of over 48.7 µM and a GI50 (HOP-92 NSCLC) of 23.2 µM. For the same compound, the TGI (HOP-92 NSCLC) was over 100 µM, the GI50 (HCC-2998 colon) was 3.17 µM and the TGI (HCC-2998 colon) was 18.6 µM. For the same compound, the GI50 (MOLT-4 leukemia) was 0.463 µM, the TGI (MOLT-4 leukemia) was 1.73 µM and the GI50 (U251 CNS) was 12.2 µM. For the same compound, the TGI (U251 CNS) was over 55.9 µM, the GI50 (BT-549 breast) was 21.4 µM and the TGI (BT-549 breast) was over 100 µM. For the same compound, the GI50 (HOP-62 NSCLC) was 3.57 µM, the TGI (HOP-62 NSCLC) was over 89.8 µM and the GI50 (NCI/ADR-RES ovarian) was 5.94 µM. For the same compound, the TGI (NCI/ADR-RES ovarian) was over 49.1 µM, the GI50 (A498 renal) was 24.7 µM and the TGI (A498 renal) was over 73.9 µM. It also gave a GI50 (A549 NSCLC) of 10.3 µM, a TGI (A549 NSCLC) of over 54.6 µM and a GI50 (UO-31 renal) of 16.7 µM. It also gave a TGI (UO-31 renal) of 97.7 µM, a GI50 (SNB-19 CNS) of 8.28 µM and a TGI (SNB-19 CNS) of over 71.3 µM. The GI50 (KM12 colon) was 5.61 µM, the TGI (KM12 colon) was 41.9 µM and the GI50 (NCI-H23 lung) was 10.6 µM. For the same compound, the TGI (NCI-H23 lung) was over 72 µM, the GI50 (SN12C renal) was 7.16 µM and the TGI (SN12C renal) was 72.3 µM. For the same compound, the GI50 (HCT-15 colon) was 17.8 µM, the TGI (HCT-15 colon) was over 53.3 µM and the GI50 (CCRF-CEM leukemia) was 0.24 µM. For the same compound, the TGI (CCRF-CEM leukemia) was 1.73 µM, the GI50 (UACC-257 melanoma) was over 100 µM and the TGI (UACC-257 melanoma) was over 100 µM. It also gave a GI50 (ACHN renal) of 6.9 µM, a TGI (ACHN renal) of 20.8 µM and a GI50 (SF-295 CNS) of 1.26 µM. It also gave a GI50 (SNB-75 CNS) of 6.9 µM, a TGI (SNB-75 CNS) of over 100 µM and a GI50 (DU-145 prostate) of 5.05 µM. It also gave a TGI (DU-145 prostate) of 24.7 µM, a GI50 (OVCAR-8 ovarian) of 7.87 µM and a TGI (OVCAR-8 ovarian) of over 100 µM. It also gave a GI50 (NCI-H522 lung) of 5.59 µM, a TGI (NCI-H522 lung) of over 100 µM and a GI50 (RXF 393 renal) of 6.68 µM. It also gave a TGI (RXF 393 renal) of 24.7 µM, a GI50 (SK-MEL-28 melanoma) of 8.5 µM and a TGI (SK-MEL-28 melanoma) of over 65 µM. It also gave a GI50 (MCF7 breast) of 2.34 µM, a TGI (MCF7 breast) of over 53.4 µM and a GI50 (TK-10 renal) of 38 µM. The TGI (TK-10 renal) was over 100 µM, the GI50 (COLO 205 colon) was 1.04 µM and the TGI (COLO 205 colon) was over 100 µM. The GI50 (RPMI-8226 leukemia) was 0.238 µM, the TGI (RPMI-8226 leukemia) was 1.53 µM and the GI50 (SF-539 CNS) was 4.47 µM. For the same compound, the TGI (SF-539 CNS) was 28.7 µM, the GI50 (IGROV1 ovarian) was 1.61 µM and the TGI (IGROV1 ovarian) was over 51.7 µM. For the same compound, the GI50 (MDA-MB-435) was 19.1 µM, the TGI (MDA-MB-435) was over 100 µM and the GI50 (CAKI-1 renal) was 12.7 µM. For the same compound, the TGI (CAKI-1 renal) was over 77.9 µM, the GI50 (K-562 leukemia) was 4.39 µM and the TGI (K-562 leukemia) was 24.4 µM. It also gave a GI50 (SK-MEL-2 melanoma) of over 100 µM, a TGI (SK-MEL-2 melanoma) of over 100 µM and a GI50 (NCI-H460 lung) of 3.51 µM. It also gave a TGI (NCI-H460 lung) of 21.6 µM, a GI50 (SK-OV-3 ovarian) of 29.4 µM and a TGI (SK-OV-3 ovarian) of over 100 µM. It also gave a GI50 (HS 578T breast) of 99.7 µM, a TGI (HS 578T breast) of over 100 µM and a GI50 (LOX IMVI melanoma) of 4.66 µM. For the same compound, the TGI (LOX IMVI melanoma) was 19.2 µM, the GI50 (MALME-3M melanoma) was 7.38 µM and the TGI (MALME-3M melanoma) was over 100 µM. It also gave a GI50 (OVCAR-5 ovarian) of over 91.6 µM, a TGI (OVCAR-5 ovarian) of over 100 µM and a GI50 (HCT-116 colon) of 3.71 µM. It also gave a TGI (HCT-116 colon) of 16.6 µM, a GI50 (SR leukemia) of 0.184 µM and a TGI (SR leukemia) of 1.82 µM. The GI50 (OVCAR-3 ovarian) was 5.83 µM, the TGI (OVCAR-3 ovarian) was 54.8 µM and the GI50 (SW-620 colon) was 2.11 µM. The TGI (SW-620 colon) was 66 µM, the GI50 (M14 melanoma) was 3.83 µM and the TGI (M14 melanoma) was over 88.2 µM. For the same compound, the GI50 (786-0 renal) was 16 µM, the TGI (786-0 renal) was 73.9 µM and the GI50 (OVCAR-4 ovarian) was 6.68 µM. It also gave a TGI (OVCAR-4 ovarian) of 53.5 µM, a GI50 (MDA-MB-231 breast) of 10.6 µM and a TGI (MDA-MB-231 breast) of 23.6 µM. The GI50 (EKVX NSCLC) was over 43.7 µM and the TGI (EKVX NSCLC) was over 72.7 µM.
